{"source": "patent US20240228506A1", "about": "“RIPK1 INHIBITORS AND METHODS OF USE” (Merck Sharp & Dohme LLC, priority 2021, published 2024)", "target": "T1, GST-RIPK1 (recombinant GST-RIPK1 kinase domain (residues 1-327)) (Homo sapiens, UniProt Q13546)", "T1 construct": "recombinant GST-RIPK1 kinase domain (residues 1-327) enzyme; made in house; host or cells: baculovirus-transfected Sf21 insect cells", "T1 sequence (Q13546 1-327)": "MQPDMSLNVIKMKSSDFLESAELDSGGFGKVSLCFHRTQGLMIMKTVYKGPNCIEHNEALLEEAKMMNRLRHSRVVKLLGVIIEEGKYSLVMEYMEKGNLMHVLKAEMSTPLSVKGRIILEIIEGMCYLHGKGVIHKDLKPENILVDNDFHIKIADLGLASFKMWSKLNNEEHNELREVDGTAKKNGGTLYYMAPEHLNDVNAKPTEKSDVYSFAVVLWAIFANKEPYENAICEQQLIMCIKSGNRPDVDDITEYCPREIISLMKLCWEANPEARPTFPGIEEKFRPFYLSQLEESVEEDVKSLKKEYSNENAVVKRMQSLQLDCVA", "experiment": "RIPK1-ADP-Glo enzymatic assay", "type": "biochemical", "conditions": "25 nM GST-RIPK1, 300 μM ATP, 3 μM dephosphorylated-MBP; 30 minutes pre-incubation, 150 minutes reaction; ten-point titration", "procedure": "The enzymatic activity of RIPK1 is measured using an assay derived from ADP-Glo kit (Promega™), which provides a luminescent-based ADP detection system. Specifically, the ADP generated by RIPK1 kinase is proportionally detected as luminescent signals in a homogenous fashion. In this context, the assessment of the inhibitory effect of small molecules (EC50) is measured by the effectiveness of the compounds to inhibit the ATP to ADP conversion by RIPK1. In this assay, the potency (EC50) of each compound was determined from a ten-point (1:3 serial dilution; top compound concentration of 100000 nM) titration curve using the following outlined procedure. To each well of a white ProxiPlus 384 well-plate, […] of compound (1% DMSO in final assay volume of 3 μL) was dispensed, followed by the addition of 2 μL of 1× assay buffer (25 mM Hepes 7.3, 20 mM MgCl2, 50 mM NaCl, 1 mM DTT, 0.005% Tween20, and 0.02% BSA) containing 37.5 nM of GST-RIPK1 (recombinant GST-RIPK1 kinase domain (residues 1-327) enzyme produced from baculovirus-transfected Sf21 cells: MW=62 kDa). Plates were placed in an ambient temperature humidified chamber for a 30 minutes pre-incubation with compound. Subsequently, each reaction was initiated by the addition of 1 μL 1×assay buffer containing 900 μM ATP and […]. The final reaction in each well of 3 μL consists of 25 nM of GST-RIPK1, 300 μM ATP, and 3 μM dephosphorylated-MBP. Kinase reactions were allowed to proceed for 150 minutes prior to adding ADP-Glo reagents per Promega's outlined kit protocol. Dose-response curves were generated by plotting percent effect (% product conversion; Y-axis) vs. Log10 compound concentrations (X-axis). EC50 values were calculated using a non-linear regression, four-parameters sigmoidal dose-response model.", "data": [{"smiles": "COC(C)(C(=O)N1C[C@@H]2C[C@H]1c1cncc(C#N)c1O2)C1CC1", "note": "(mixture of isomers) [Compound 1-62, (2S,5S)-4-(2-(S and R)-cyclopropyl-2-methoxypropanoyl)-2,3,4,5-tetrahydro-2,5-methanopyrido[3,4-f][1,4]oxazepine-9-carbonitrile]", "values": [{"measurement": "IC50", "value": 444, "unit": "nM"}]}, {"smiles": "CC1(C(=O)N2C[C@@H]3C[C@H]2c2cncc(C#N)c2O3)CCCO1", "note": "(mixture of isomers) [Compound 1-64, (2S,5S)-4-(2-(S and R)-methyltetrahydrofuran-2-carbonyl)-2,3,4,5-tetrahydro-2,5-methanopyrido[3,4-f][1,4]oxazepine-9-carbonitrile]", "values": [{"measurement": "IC50", "value": 729, "unit": "nM"}]}, {"smiles": "CC1(C(=O)N2C[C@@H]3C[C@H]2c2cncc(C#N)c2O3)CCOC1", "note": "(mixture of isomers) [Compound 1-67, (2S,5S)-4-(3-(S and R)-methyltetrahydrofuran-3-carbonyl)-2,3,4,5-tetrahydro-2,5-methanopyrido[3,4-f][1,4]oxazepine-9-carbonitrile]", "values": [{"measurement": "IC50", "value": 640, "unit": "nM"}]}, {"smiles": "CCC(C)(OC)C(=O)N1C[C@@H]2C[C@H]1c1cncc(C#N)c1O2", "note": "(single isomer, unassigned) [Compound 1-16, (2S,5S)-4-[2(S or R)-methoxy-2-methylbutanoyl]-2,3,4,5-tetrahydro-2,5-methanopyrido[3,4-f][1,4]oxazepine-9-carbonitrile]", "values": [{"measurement": "IC50", "value": 10, "unit": "nM"}]}, {"smiles": "CCC(C)(OC)C(=O)N1C[C@@H]2C[C@H]1c1cncc(C#N)c1O2", "note": "(single isomer, unassigned) [Compound 1-17, (2S,5S)-4-[2(S or R)-methoxy-2-methylbutanoyl]-2,3,4,5-tetrahydro-2,5-methanopyrido[3,4-f][1,4]oxazepine-9-carbonitrile]", "values": [{"measurement": "IC50", "value": 24, "unit": "nM"}]}, {"smiles": "CC1(C(=O)N2C[C@@H]3C[C@H]2c2cncc(C#N)c2O3)CC1(F)F", "note": "(single isomer, unassigned) [Compound 1-28, (2S,5S)-4-[(S or R)-2,2-difluoro-1-methylcyclopropane-1-carbonyl]-2,3,4,5-tetrahydro-2,5-methanopyrido[3,4-f][1,4]oxazepine-9-carbonitrile]", "values": [{"measurement": "IC50", "value": 201, "unit": "nM"}]}, {"smiles": "CC1(C(=O)N2C[C@@H]3C[C@H]2c2cncc(C#N)c2O3)CC1(F)F", "note": "(single isomer, unassigned) [Compound 1-29, (2S,5S)-4-[(S or R)-2,2-difluoro-1-methylcyclopropane-1-carbonyl]-2,3,4,5-tetrahydro-2,5-methanopyrido[3,4-f][1,4]oxazepine-9-carbonitrile]", "values": [{"measurement": "IC50", "value": 376, "unit": "nM"}]}, {"smiles": "N#Cc1cncc2c1O[C@H]1C[C@@H]2N(C(=O)C23CCCC2C3)C1", "note": "(single isomer, unassigned) [Compound 1-32, (2S,5S)-4-[(1R,5R or 1S,5S)-bicyclo[3.1.0]hexane-1-carbonyl]-2,3,4,5-tetrahydro-2,5-methanopyrido[3,4-f][1,4]oxazepine-9-carbonitrile]", "values": [{"measurement": "IC50", "value": 290, "unit": "nM"}]}, {"smiles": "N#Cc1cncc2c1O[C@H]1C[C@@H]2N(C(=O)C23CCCC2C3)C1", "note": "(single isomer, unassigned) [Compound 1-33, (2S,5S)-4-[(1R,5R or 1S,5S)-bicyclo[3.1.0]hexane-1-carbonyl]-2,3,4,5-tetrahydro-2,5-methanopyrido[3,4-f][1,4]oxazepine-9-carbonitrile]", "values": [{"measurement": "IC50", "value": 94, "unit": "nM"}]}, {"smiles": "CC1(C(=O)N2C[C@@H]3C[C@H]2c2cncc(C#N)c2O3)Cc2cccc(Cl)c21", "note": "(single isomer, unassigned) [Compound 1-37, (2S,5S)-4-(5-chloro-7(R or S)-methylbicyclo[4.2.0]octa-1,3,5-triene-7-carbonyl)-2,3,4,5-tetrahydro-2,5-methanopyrido[3,4-f][1,4]oxazepine-9-carbonitrile]", "values": [{"measurement": "IC50", "value": 136, "unit": "nM"}]}, {"smiles": "CC1(C(=O)N2C[C@@H]3C[C@H]2c2cncc(C#N)c2O3)CCCC1(F)F", "note": "(single isomer, unassigned) [Compound 1-38]", "values": [{"measurement": "IC50", "value": 21, "unit": "nM"}]}, {"smiles": "CC1(C(=O)N2C[C@@H]3C[C@H]2c2cncc(C#N)c2O3)CCCC1(F)F", "note": "(single isomer, unassigned) [Compound 1-39]", "values": [{"measurement": "IC50", "value": 31, "unit": "nM"}]}, {"smiles": "CC1(C(=O)N2C[C@@H]3C[C@H]2c2cncc(C#N)c2O3)CCCC(F)(F)C1", "note": "(single isomer, unassigned) [Compound 1-40, (2S,5S)-4-[3,3-difluoro-1(R or S)-methylcyclohexane-1-carbonyl]-2,3,4,5-tetrahydro-2,5-methanopyrido[3,4-f][1,4]oxazepine-9-carbonitrile]", "values": [{"measurement": "IC50", "value": 62, "unit": "nM"}]}, {"smiles": "CC1(C(=O)N2C[C@@H]3C[C@H]2c2cncc(C#N)c2O3)CCCC(F)(F)C1", "note": "(single isomer, unassigned) [Compound 1-41, (2S,5S)-4-[3,3-difluoro-1-(R or S)-methylcyclohexane-1-carbonyl]-2,3,4,5-tetrahydro-2,5-methanopyrido[3,4-f][1,4]oxazepine-9-carbonitrile]", "values": [{"measurement": "IC50", "value": 27, "unit": "nM"}]}, {"smiles": "N#Cc1cncc2c1O[C@H]1C[C@@H]2N(C(=O)C23CCC(CC2(F)F)C3)C1", "note": "(single isomer, unassigned) [Compound 1-48, (2S,5S)-4-[(S or R)-2,2-difluorobicyclo[2.2.1]heptane-1-carbonyl]-2,3,4,5-tetrahydro-2,5-methanopyrido[3,4-f][1,4]oxazepine-9-carbonitrile]", "values": [{"measurement": "IC50", "value": 5, "unit": "nM"}]}, {"smiles": "N#Cc1cncc2c1O[C@H]1C[C@@H]2N(C(=O)C23CCC(CC2(F)F)C3)C1", "note": "(single isomer, unassigned) [Compound 1-49, (2S,5S)-4-[(S or R)-2,2-difluorobicyclo[2.2.1]heptane-1-carbonyl]-2,3,4,5-tetrahydro-2,5-methanopyrido[3,4-f][1,4]oxazepine-9-carbonitrile]", "values": [{"measurement": "IC50", "value": 70, "unit": "nM"}]}, {"smiles": "N#Cc1cncc2c1O[C@H]1C[C@@H]2N(C(=O)C23CCC(C2)OC3)C1", "note": "(single isomer, unassigned) [Compound 1-50, (2S,5S)-4-[(S or R)-2-oxabicyclo[2.2.1]heptane-4-carbonyl]-2,3,4,5-tetrahydro-2,5-methanopyrido[3,4-f][1,4]oxazepine-9-carbonitrile]", "values": [{"measurement": "IC50", "value": 300, "unit": "nM"}]}, {"smiles": "N#Cc1cncc2c1O[C@H]1C[C@@H]2N(C(=O)C23CCC(C2)OC3)C1", "note": "(single isomer, unassigned) [Compound 1-51, (2S,5S)-4-[(S or R)-2-oxabicyclo[2.2.1]heptane-4-carbonyl]-2,3,4,5-tetrahydro-2,5-methanopyrido[3,4-f][1,4]oxazepine-9-carbonitrile]", "values": [{"measurement": "IC50", "value": 367, "unit": "nM"}]}, {"smiles": "CCC(C)(C(=O)N1C[C@@H]2C[C@H]1c1cncc(C#N)c1O2)C(F)F", "note": "(single isomer, unassigned) [Compound 1-84, (2S,5S)-4-(2-(R or S)-(difluoromethyl)-2-methylbutanoyl)-2,3,4,5-tetrahydro-2,5-methanopyrido[3,4-f][1,4]oxazepine-9-carbonitrile]", "values": [{"measurement": "IC50", "value": 47, "unit": "nM"}]}, {"smiles": "CCC(C)(C(=O)N1C[C@@H]2C[C@H]1c1cncc(C#N)c1O2)C(F)F", "note": "(single isomer, unassigned) [Compound 1-85, (2S,5S)-4-(2-(R or S)-(difluoromethyl)-2-methylbutanoyl)-2,3,4,5-tetrahydro-2,5-methanopyrido[3,4-f][1,4]oxazepine-9-carbonitrile]", "values": [{"measurement": "IC50", "value": 19, "unit": "nM"}]}, {"smiles": "N#Cc1cncc2c1O[C@H]1C[C@@H]2N(C(=O)C23CCCC2C3(F)F)C1", "note": "(single isomer, unassigned) [Compound 1-86, (2S,5S)-4-((1R,5S or 1S,5R)-6,6-difluorobicyclo[3.1.0]hexane-1-carbonyl)-2,3,4,5-tetrahydro-2,5-methanopyrido[3,4-f][1,4]oxazepine-9-carbonitrile]", "values": [{"measurement": "IC50", "value": 33, "unit": "nM"}]}, {"smiles": "N#Cc1cncc2c1O[C@H]1C[C@@H]2N(C(=O)C23CCCC2C3(F)F)C1", "note": "(single isomer, unassigned) [Compound 1-87, (2S,5S)-4-((1R,5S or 1S,5R)-6,6-difluorobicyclo[3.1.0]hexane-1-carbonyl)-2,3,4,5-tetrahydro-2,5-methanopyrido[3,4-f][1,4]oxazepine-9-carbonitrile]", "values": [{"measurement": "IC50", "value": 68, "unit": "nM"}]}, {"smiles": "CC(C(=O)N1C[C@@H]2C[C@H]1c1cncc(C#N)c1O2)(C(F)F)C1CC1", "note": "(single isomer, unassigned) [Compound 1-88, (2S,5S)-4-(2-(R or S)-cyclopropyl-3,3-difluoro-2-methylpropanoyl)-2,3,4,5-tetrahydro-2,5-methanopyrido[3,4-f][1,4]oxazepine-9-carbonitrile]", "values": [{"measurement": "IC50", "value": 96, "unit": "nM"}]}]}
